From patent US20170305894A1, “PPAR AGONISTS, COMPOUNDS, PHARMACEUTICAL COMPOSITIONS, AND METHODS OF USE THEREOF” (priority 2014, published 2017)

Experiments:
FGF1a promoter = assay: Luciferase reporter assay of FGF1a promoter co-transfected with PPARδ; assay type: cell-based; details: with or without the ligand
Text: FIGS. 3A-3G illustrate that PPARδ regulates FGF1a to promote micro-vascularization. *P<0.05; **P<0.01. All error bars are SEM. FIG. 3A provides immunofluorescence staining for CD31 on transverse sections of uninjured TA from WT and TG animals. FIG. 3B provides quantification of CD31 positive capillary number (n=4). FIG. 3C illustrates the FGF1a mRNA level in TA of WT and TG by QPCR (n=5). FIG. 3D provides a Western blot for FGF1. FIG. 3E provides immunofluorescence staining for CD31 positive capillaries on transverse sections of TA, 5 days after the injury (n=3). FIG. 3F provides quantification for CD31 positive capillaries on transverse sections of TA, 5 days after the injury (n=3). FIG. 3G provides luciferase reporter assays of FGF1a promoter co-transfected with PPARδ with or without the ligand, GW501516.
Increased vasculature is one of the hallmarks of oxidative myofibers, which facilitates introduction of immune cells and also supports increased number of satellite cells. TG animals show increased expression of FGF1 in TA muscle (FIG. 3D). Upon injury, TG animals maintain high expression of FGF1 expression (FIG. 3D). […] Furthermore, after the injury, TG animals show increased expression of CD31, which is indicative of increased vascularity (FIGS. 3E-F). […] Therefore, increased vascularity may contribute to the accelerated regenerative process observed in VP16-PPARδ animals.

[1] = system: C57BL6J mice, thermal injury to the TA; assay: Acute pharmacological activation of PPARδ in freeze burn (thermal) injury of the TA muscle; assay type: in vivo
Description: TA muscles were injured according to previously published methods with a few modifications (Brack et al., Science 317(5839):807-810 (2007)). A stainless steel 1 g weight (Mettler-Toledo) equilibrated to the temperature of dry ice was placed directly on the exposed TA for 10 seconds. Following the thermal injury, incision was closed using VetBond (3M). All injury procedures were performed on the left leg, and the right leg was used as control.
(Hamer et al., J Anat 200(Pt 1):69-79 (2002)). Sterile 1% w/v Evans Blue dye in PBS was intraperitoneally injected at 1% volume relative to the body mass of an animal. Seven hours after the injection, injured TA muscles were harvested and snap-frozen by isopentane quenching in liquid nitrogen. Frozen sections were cut in 10 μm thickness, fixed in ice-cold acetone, dipped in xylene and mounted with DPX. Proportion of the stained area over the total area was measured using ImageJ software.
50 mg/kg body weight of BrdU (Sigma) was injected intraperitoneally as solution of 10 mg/mL BrdU in saline. TA muscles were harvested at 7 days after injury and processed for paraffin sections as described above. BrdU incorporation was visualized using the BrdU Labeling and Detection Kit I (Roche) and BrdU+ nuclei were counted and represented as a proportion of total nuclei in a field.
Whole or partial tissues were homogenized by Polytron probe homogenizer in Trizol reagent (Invitrogen). Total RNA was extracted from the homogenates according to the manufacturer's protocol. One microgram of DNase-treated total RNA was reverse transcribed using Superscript II Reverse Transcriptase (Invitrogen) according to the manufacturer's instructions. cDNAs were diluted 1/40 with ddH2O and used as templates in RT-QPCR reactions with SYBRGreenER qPCR SuperMix detection system (Invitrogen). Samples were prepared in technical triplicates and relative mRNA levels were calculated by using the standard curve methodology and normalized against GAPDH mRNA levels in the same samples.

Cc1cc(SCc2sc(-c3ccc(C(F)(F)F)cc3)nc2C)ccc1OCC(=O)O [GW501516] was tested, and the “FGF1a promoter luciferase reporter activity” value (FGF1a promoter) was “induction of FGF1a”, the “initial inflammatory responses (inflammatory marker genes)” value ([1]; 12 hours after the injury, with or without ligand) was “similarly generated” and the “expressions of inflammatory marker genes by QPCR” value ([1]; 3 days after the injury) was “significantly reduced”. For the same compound, the “reduction in the proportion of stained area” value ([1]; 5 days after the injury, versus vehicle, orally 5 mg/kg) was 34.7%, the “expression of PPARδ target genes (PDK4, CPT1b, and catalase) in TA by QPCR” value ([1]; 9 day treatment, orally 5 mg/kg) was “Up-regulation” and the “myoblast proliferation (BrdU positive nuclei)” value ([1]; BrdU injection at 48 hours after the injury) was “promoted myoblast proliferation”. For the same compound, the “increase in the number of quiescent satellite cells” value ([1]; after 9 days or 4 weeks of ligand treatment) was “not observed” and the “Evans Blue dye uptake, proportion of muscle cross sectional area (CSA) stained” value ([1]; orally 5 mg/kg for 4 days prior to and 5 days after injury, 5 days after the injury, vehicle 7.6%) was 4.9%.
